# Results taken from patent US20170196842A1, “METHODS OF TREATMENT USING A 1,2,4-OXADIAZOLE BENZOIC ACID” (PTC Therapeutics, Inc., priority 2014, published 2017).
# “Also recorded” adds a separate entry of the source.
# Experiments:
# [1] = tested on: Idua-W402X mice; assay: Tissue GAG levels in the nonsense-mutation Hurler mouse model, Compound 1 given in chow; type: in vivo
# Protocol: Compound 1 was administered to Idua-W402X mice by mixing Compound 1 into solid mouse chow at concentrations of 0.1%. 0.3% or 1.0% (w/w) for 2 weeks, after which time GAG levels in the brain, spleen, heart, liver, lung, and kidney tissues were quantified.
# The effect of Compound 1 on iduronidase activity as a result of readthrough of the premature stop codon present in the Idua gene (Idua-W392X) was determined in a nonsense-mutation containing mouse model of Hurler syndrome, referred to as the Idua-W392X Hurler mouse. The study initiated when mice were 3-4 weeks old.
# Homozygous Idua-W392X mice were offered food prepared with or without Compound 1 for 14 days. Wild type animals received chow without Compound 1 for 14 days. Assay results were obtained from tissues isolated from wild type (+/+) and homozygous Idua-W392X (−/−) mice after 14 days of treatment. Briefly, Compound 1 was dissolved in water, mixed into pulverized chow, shaped into pellets and dried.
# Following the 14-day treatment period, mice were anesthetized using isoflurane and transcardially perfused with 20 mL saline prior to tissue collection. At the time of sacrifice, brain, liver, heart, lung, spleen and kidney were collected and frozen at −80° C. until used for determination of GAG levels.
# (§1) GAG levels were determined using the Blyscan Sulfated GAG Assay (Biocolor Ltd, UK). Briefly, 50 μL of each lysate was added to 500 μL of the Blyscan Dye Reagent and mixed by vortexing. The mixture was incubated at room temperature for 30 minutes, vortexing every 5 minutes. The dye-bound GAGs were isolated from the solution by centrifuging for 10 minutes at 10,000 g at room temperature. A total of 500 μL of the Blyscan Dye Dissociation Reagent was added to the […] from each sample. The samples were vortexed and incubated for 10 minute at room temperature. The entire volume of each sample was then placed into a cuvette and the absorbance was measured at a wavelength of 656 nm. The total amount of sulfated GAGs precipitated from each sample was determined from a standard curve using chondroitin 4-sulfate. The total protein concentration in each lysate was determined using the Bio-Rad protein assay with a standard curve generated using bovine serum albumin.
# [2] = tested on: Mouse embryonic fibroblasts (MEFs) isolated from the Idua-W402X mice; assay: GAG levels in cultured mouse embryonic fibroblasts from the nmHurler mouse model (Blyscan Sulfated GAG Assay); type: cell-based; settings: 24 hours
# Protocol: nmMPS I is caused by the lack of the lysosomal enzyme IDUA and results in the accumulation of GAGs in tissues. Therefore, GAG levels can be monitored to assess the efficacy of treatment for this disease. In the nmHurler mouse model of nmMPS I, the Idua-W402X Hurler mouse IDUA gene (TGG→TAG) harbors a W392X mutation in exon 9, corresponding to the W402X mutation found in approximately 30 to 50% of nmMPS I patients. Mouse embryonic fibroblasts (MEFs) isolated from the Idua-W402X mice were treated with Compound 1 at concentrations of 0, 1, 2.5, 5, 10, 20, and 40 μg/mL for 24 hours in 0.2% DMSO. After 24 hours, cells were lysed and the levels of GAGs were quantified.
# (§2) The effect of Compound 1 on iduronidase activity as a result of readthrough of the premature stop codon present in the Idua gene was determined in an in vitro GAG accumulation assay. This assay utilized primary fibroblasts isolated from 13 day-old +/+ and −/− Idua-W392X mouse embryos. Mouse embryonic fibroblasts (MEFs) were isolated from 13 day-old wild type and homozygous Idua-W392X mouse embryo littermates. The cells were grown in Dulbecco's Modified Eagle Media (DMEM) containing 10% bovine calf serum (BCS)+1% non-essential amino acids+1% penicillin/streptomycin at 37° C. and 5% CO2. The MEFs were isolated and grown on collagen-coated plates until ˜50% confluent. MEFs from Idua-W392X mice were treated with increasing concentrations of Compound 1 dissolved in DMSO to a final concentration of 0.2%. Cells were incubated with Compound 1 for 24 hours. Controls included untreated wild type and untreated Idua-W392X MEFs. After 24 hours, cells were visually inspected for signs of cytotoxicity and cell stress and then lysed using M-Per Protein Reagent (Pierce) containing protease inhibitors (Complete-mini; Roche) per the manufacturer's instructions. The supernatant was used to determine glycosaminoglycan (GAG) levels, as described below.
# as §1, with “μl” for “μL”, “temperature.” for “temperature. A total of”, “The samples were vortexed and incubated for 10 minute at room temperature.” left out
# [3] = Weight gain and food intake of mice given Compound 1 in chow; type: in vivo, C57BL/6J mice; settings: 1.0% (w/w) in chow
# From the text: Mice receiving food containing 1.0% (w/w) Compound 1 are 45% less food than mice receiving the control chow. However, a reduction in weight gain would not be expected to elicit a reduction in tissue GAG levels in the pharmacology studies.
# [4] = tested on: Mouse embryonic fibroblasts (MEFs); assay: Cell toxicity/stress (visual inspection) and total protein concentration in MEFs; type: cell-based; settings: 24 hours
# Protocol: The greatest reduction of GAG levels occurred at 10 μg/mL with decreased reduction of GAG levels at concentrations above 20 μg/mL. […] Cell viability was determined by quantifying the total protein concentration in each lysate.
# as §2, with “After 24 hours, cells were visually inspected for signs of cytotoxicity and cell stress and then lysed using M-Per Protein Reagent (Pierce) containing protease inhibitors (Complete-mini; Roche) per the manufacturer's instructions. The supernatant was used to determine glycosaminoglycan (GAG) levels, as described below.” left out
# The total protein concentration in each lysate was determined using the Bio-Rad protein assay with a standard curve generated using bovine serum albumin.
# [5] = Idua-W402X (W392X) mice, 0.1%, 0.3%, 1.0% (w/w) chow, 14 days
# [6] = Idua-W402X mice, 0.1% (w/w) in chow, 2 weeks
# [7] = Idua-W402X mice, 0.3% (w/w) in chow, 2 weeks
# [8] = Idua-W402X mice, 1.0% (w/w) in chow, 2 weeks
compound,measurement,setting,value
"O=C(O)c1cccc(-c2noc(-c3ccccc3F)n2)c1 [Compound 1, 3-[5-(2-fluoro-phenyl)-[1,2,4]oxadiazol-3-yl]-benzoic acid]",Nonsense suppression activity as determined by decreased GAG levels in multiple tissues,"[1]; Idua-W392X mice, chow, 14 days",concentration-dependent nonsense suppression activity
same,"Compound 1 concentration in chow giving maximal reduction of GAG levels in brain, spleen, heart and lung",[1]; [5],0.1%
same,Compound 1 concentration in chow giving maximal reduction of liver GAG levels,[1]; [5],0.3%
same,Effect on GAG levels in the kidney,"[1]; Idua-W402X (W392X) mice, any dose (0.1-1.0% chow)",No statistically significant effect
same,"Reduction in Excess GAG Levels, Brain",[1]; [6],70%
same,"Reduction in Excess GAG Levels, Heart",[1]; [6],36%
same,"Reduction in Excess GAG Levels, Kidney",[1]; [6],0%
same,"Reduction in Excess GAG Levels, Liver",[1]; [6],0%
same,"Reduction in Excess GAG Levels, Lung",[1]; [6],19%
same,"Reduction in Excess GAG Levels, Spleen",[1]; [6],78%
same,GAG levels achieved in the brain and spleen,"[1]; Idua-W402X mice, 0.1% in chow, 2 weeks",near normal GAG levels
same,"Reduction in Excess GAG Levels, Brain",[1]; [7],37%
same,"Reduction in Excess GAG Levels, Heart",[1]; [7],0%
same,"Reduction in Excess GAG Levels, Kidney",[1]; [7],0%
same,"Reduction in Excess GAG Levels, Liver",[1]; [7],53%
same,"Reduction in Excess GAG Levels, Lung",[1]; [7],11%
same,"Reduction in Excess GAG Levels, Spleen",[1]; [7],57%
same,"Reduction in Excess GAG Levels, Brain",[1]; [8],28%
same,"Reduction in Excess GAG Levels, Heart",[1]; [8],0%
same,"Reduction in Excess GAG Levels, Kidney",[1]; [8],0%
same,"Reduction in Excess GAG Levels, Liver",[1]; [8],17%
same,"Reduction in Excess GAG Levels, Lung",[1]; [8],14%
same,"Reduction in Excess GAG Levels, Spleen",[1]; [8],11%
same,Dose-response relationship for GAG reduction,[2]; Idua-W392X MEFs,U shaped dose-response relationship
same,Nonsense suppression activity as determined by GAG levels,[2]; Idua-W392X MEFs,concentration dependent nonsense suppression activity
same,Concentration giving the greatest reduction of GAG levels,"[2]; Idua-W402X (W392X) MEFs, 1-40 μg/mL tested",10 µg/mL
same,Concentrations with decreased reduction of GAG levels,[2]; Idua-W402X MEFs,above 20 μg/mL
same,Reduction of food intake versus control chow,[3],45%
same,"Weight gain versus 0.1%, 0.3% doses or vehicle",[3]; satellite PK study and Idua-W402X pharmacology studies,did not gain as much weight
same,Changes in total protein concentration (cell viability),[4]; 0 to 40 μg/mL,No notable changes
same,"Signs of cellular toxicity or stress (cells rounding up or floating, changes in cell density)",[4]; up to the highest concentration tested (40 μg/mL),No signs of cellular toxicity or stress; also recorded: No signs of cell toxicity or stress
